Patent US11180518B2, “Phenyl-heterocycle-phenyl derivatives for use in the treatment or prevention of melanoma” (MAX-PLANCK-GESELLSCHAFT ZUR FÖRDERUNG DER WISSENSCHAFTEN …, priority 2017, dated 2021)

Test system: WM983-A melanoma cells
Experiment: Melanoma cell proliferation analysis (hemocytometer counting)
Type: cell-based, human
From the text: To assess the possible impact of anle138b as well as anle138c on the different melanoma cell lines, WM983-A, WM983-B and SK-MEL-5, we treated them with increasing doses of either compound, dissolved in dimethyl sulfoxide (DMSO), and added to serum-free culture medium. […] We also observed that treatment with anle138b caused a more rapid morphological change than anle138c. To determine whether the effect of the two anle compounds was related to the amount of α-synuclein produced by the cells, we compared the proliferation of the (VGP) WM983-A high-level and the (RGP/VGP) WM1158 low-level α-synuclein-producing melanoma cells over a period of 96 hr, with replenishment of each anle compound at 48 hr (FIGS. 8A and B).
To compare how rapidly anle138b affected the proliferation of melanoma cells, expressing α-synuclein at a high level, we treated the melanoma cell lines, WM983-A (VGP) and WM983-B (MGP), for 24, 48 or 72 hr with 10 μM of anle138b, with replenishment of the compound (10 μM) at 48 hr.
10 or 30 mM stock solutions of anle138b or anle138c were made in DMSO. […] Proliferation of melanoma cells that had received DMSO only, or were treated with anle138b was determined by counting the cells with a hemocytometer.

## Brc1cccc(-c2cc(-c3ccc4c(c3)OCO4)n[nH]2)c1 [anle138b, 5-(3-Bromophenyl)-3-(3,4-methylenedioxyphenyl)-1H-pyrazole]
Removal of compound-containing medium at 96 hr, then serum-free medium
  proliferation of residual cells after removal of compound: not able to proliferate again
Single dose of 10 μM, 24 hr
  proliferation: inhibited the proliferation of both cell lines to a significant extent
